Calls of active or inactive are those of the source. No cut-off for these calls is given here.
What was measured:
[1] = AUC(0 to infinity) in male Sprague-Dawley rat at 2 mg/kg, iv by UHPLC-MS/MS analysis; format: ADME, organism-based; settings: in vivo
[2] = biological target: Fibroblast growth factor receptor 2 (Homo sapiens, UniProt P21802); assay: Inhibition of wild type FGFR2 (unknown origin) by caliper mobility shift assay
[3] = test system: NCI-H1581; assay: Inhibition of AKT (unknown origin) phosphorylation in human NCI-H1581 cells at 10 to 40 nM by Western blotting analysis; format: cell-based; settings: dose 10-40 nM
[4] = Tmax in male Sprague-Dawley rat at 10 mg/kg, po by UHPLC-MS/MS analysis; format: ADME, organism-based; settings: in vivo
[5] = test system: NCI-H1581; assay: Antitumor activity against human NCI-H1581 cells xenografted in BALB/c nude mouse assessed as tumor growth inhibition at 60 mg/kg relative to control; format: functional; settings: read-out: TGI
[6] = test system: A549; assay: Inhibition of DNA replication in human A549 cells incubated for 1 hrs by EdU staining based analysis; format: functional, cell-based; settings: dose 10-40 µM
[7] = Antitumor activity against rat L6 cells harboring FGFR V561M mutant xenografted in BALB/c nude mouse assessed as tumor growth inhibition at 30 mg/kg relative to control; format: functional; settings: read-out: TGI
[8] = Half life in male Sprague-Dawley rat at 10 mg/kg, po by UHPLC-MS/MS analysis; format: ADME, organism-based; settings: in vivo
[9] = biological target: Vascular endothelial growth factor receptor 2 (Homo sapiens) (UniProt P35968); assay: Inhibition of VEGFR2 (unknown origin)
Sequence of Vascular endothelial growth factor receptor 2 (Homo sapiens) (P35968 whole entry): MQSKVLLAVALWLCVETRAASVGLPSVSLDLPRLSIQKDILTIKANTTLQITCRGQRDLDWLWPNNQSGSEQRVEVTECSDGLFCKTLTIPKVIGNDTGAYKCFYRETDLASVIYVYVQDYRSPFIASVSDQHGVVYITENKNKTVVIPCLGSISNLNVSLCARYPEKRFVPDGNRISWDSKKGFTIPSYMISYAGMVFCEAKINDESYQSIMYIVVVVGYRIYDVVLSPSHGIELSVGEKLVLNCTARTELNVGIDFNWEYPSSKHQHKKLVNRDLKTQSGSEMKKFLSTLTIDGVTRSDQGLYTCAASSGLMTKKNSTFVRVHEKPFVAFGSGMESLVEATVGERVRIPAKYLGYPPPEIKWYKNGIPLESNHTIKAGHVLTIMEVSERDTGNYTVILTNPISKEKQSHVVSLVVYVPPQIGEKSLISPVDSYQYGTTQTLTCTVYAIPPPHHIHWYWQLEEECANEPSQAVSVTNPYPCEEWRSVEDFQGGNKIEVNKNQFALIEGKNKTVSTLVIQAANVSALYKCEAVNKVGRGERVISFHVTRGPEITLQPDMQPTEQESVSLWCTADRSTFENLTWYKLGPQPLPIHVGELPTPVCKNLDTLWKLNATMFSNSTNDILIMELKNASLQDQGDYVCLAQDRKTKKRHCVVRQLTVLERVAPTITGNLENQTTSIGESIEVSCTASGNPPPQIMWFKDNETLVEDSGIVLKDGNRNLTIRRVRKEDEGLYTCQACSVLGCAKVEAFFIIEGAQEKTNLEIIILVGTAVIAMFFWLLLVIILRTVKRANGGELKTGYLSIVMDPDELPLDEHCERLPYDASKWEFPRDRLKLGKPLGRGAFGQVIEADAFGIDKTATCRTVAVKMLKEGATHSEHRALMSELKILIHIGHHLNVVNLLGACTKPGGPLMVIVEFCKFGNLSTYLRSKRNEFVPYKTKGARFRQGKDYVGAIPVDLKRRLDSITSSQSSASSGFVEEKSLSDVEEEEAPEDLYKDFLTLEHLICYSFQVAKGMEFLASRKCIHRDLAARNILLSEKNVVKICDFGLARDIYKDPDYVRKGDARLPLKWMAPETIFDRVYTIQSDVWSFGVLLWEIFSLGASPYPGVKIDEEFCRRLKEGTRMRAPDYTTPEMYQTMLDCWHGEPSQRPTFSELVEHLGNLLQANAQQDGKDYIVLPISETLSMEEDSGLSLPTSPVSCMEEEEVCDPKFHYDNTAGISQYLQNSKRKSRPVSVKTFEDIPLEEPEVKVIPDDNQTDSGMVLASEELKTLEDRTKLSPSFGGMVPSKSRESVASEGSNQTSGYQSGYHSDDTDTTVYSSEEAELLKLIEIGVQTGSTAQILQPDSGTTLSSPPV

[10] = Cmax in male Sprague-Dawley rat at 10 mg/kg, po by UHPLC-MS/MS analysis; format: ADME, organism-based; settings: in vivo
[11] = test system: NCI-H1581; assay: Inhibition of colony formation in human NCI-H1581 cells incubated for 48 hrs by crystal violet staining based assay; format: functional, cell-based; settings: dose 10-40 nM
[12] = test system: A549; assay: Inhibition of cell migration in human A549 cells at 10 to 40 nM incubated for 48 hrs by crystal violet staining based transwell assay; format: functional; settings: dose 10-40 nM
[13] = biological target: Fibroblast growth factor receptor 2 (Homo sapiens, UniProt P21802, V564I)
Sequence of Fibroblast growth factor receptor 2 (Homo sapiens, UniProt P21802, V564I) (P21802 22-821 V564I limits assumed): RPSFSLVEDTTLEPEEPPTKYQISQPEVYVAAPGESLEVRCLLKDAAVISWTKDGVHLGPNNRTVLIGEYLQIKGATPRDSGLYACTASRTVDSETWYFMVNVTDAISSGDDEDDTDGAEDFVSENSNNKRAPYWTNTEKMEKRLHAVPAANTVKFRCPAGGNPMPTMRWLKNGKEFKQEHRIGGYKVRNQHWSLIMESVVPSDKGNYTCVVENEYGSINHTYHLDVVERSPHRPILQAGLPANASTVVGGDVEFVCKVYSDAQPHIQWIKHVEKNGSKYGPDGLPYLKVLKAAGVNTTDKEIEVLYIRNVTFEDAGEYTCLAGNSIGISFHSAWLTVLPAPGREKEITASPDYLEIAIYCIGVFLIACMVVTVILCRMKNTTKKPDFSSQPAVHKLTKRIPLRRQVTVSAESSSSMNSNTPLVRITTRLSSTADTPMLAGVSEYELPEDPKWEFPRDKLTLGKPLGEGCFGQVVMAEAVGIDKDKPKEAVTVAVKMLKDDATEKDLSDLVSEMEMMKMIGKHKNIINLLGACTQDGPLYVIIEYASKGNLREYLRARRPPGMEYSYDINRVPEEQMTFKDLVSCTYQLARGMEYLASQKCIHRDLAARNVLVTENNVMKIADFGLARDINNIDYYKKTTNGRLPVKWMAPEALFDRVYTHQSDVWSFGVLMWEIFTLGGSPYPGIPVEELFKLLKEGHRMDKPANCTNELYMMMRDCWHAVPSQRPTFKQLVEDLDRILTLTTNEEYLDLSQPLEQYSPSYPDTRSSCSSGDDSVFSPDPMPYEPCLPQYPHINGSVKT

[14] = Toxicity in BALB/c nude mouse xenografted with rat L6 cells harboring FGFR V561M mutant assessed as change in heart weight at 30 to 60 mg/kg and measured daily for 14 days; format: organism-based; settings: in vivo, 336 h, dose 30-60 mg/kg, time 14 day
[15] = Toxicity in ICR mouse assessed as change in lung weight at 80 mg/kg, po measured after 7 days; format: organism-based; settings: in vivo, 168 h, time 7 day
[16] = test system: NCI-H1581; assay: Inhibition of cell migration in human NCI-H1581 cells incubated upto 72 hrs by wound healing assay; format: functional, cell-based; settings: dose 10-40 µM
[17] = test system: L6; assay: Antitumor activity against rat L6 cells harboring FGFR1 V561M mutant xenografted in BALB/c nude mouse assessed as suppression of tumor cell proliferation at 30 to 60 mg/kg by Ki-67 staining based analysis; format: functional, organism-based; settings: dose 30-60 mg/kg
[18] = Toxicity in BALB/c nude mouse xenografted with rat L6 cells harboring FGFR V561M mutant assessed as change in body weight at 30 to 60 mg/kg and measured daily; format: organism-based; settings: in vivo, dose 30-60 mg/kg
[19] = Hepatotoxicity in ICR mouse assessed as change in AST level at 80 mg/kg, po; format: toxicity, organism-based; settings: in vivo
[20] = AUC(0 to t) in male Sprague-Dawley rat at 10 mg/kg, po by UHPLC-MS/MS analysis; format: ADME, organism-based; settings: in vivo
[21] = Oral bioavailability in male Sprague-Dawley rat at 2 mg/kg, iv by UHPLC-MS/MS analysis; format: ADME, organism-based; settings: in vivo
[22] = biological target: Fibroblast growth factor receptor 3 (Homo sapiens, UniProt P22607, V555M)
Sequence of Fibroblast growth factor receptor 3 (Homo sapiens, UniProt P22607, V555M) (P22607 23-806 V555M limits assumed): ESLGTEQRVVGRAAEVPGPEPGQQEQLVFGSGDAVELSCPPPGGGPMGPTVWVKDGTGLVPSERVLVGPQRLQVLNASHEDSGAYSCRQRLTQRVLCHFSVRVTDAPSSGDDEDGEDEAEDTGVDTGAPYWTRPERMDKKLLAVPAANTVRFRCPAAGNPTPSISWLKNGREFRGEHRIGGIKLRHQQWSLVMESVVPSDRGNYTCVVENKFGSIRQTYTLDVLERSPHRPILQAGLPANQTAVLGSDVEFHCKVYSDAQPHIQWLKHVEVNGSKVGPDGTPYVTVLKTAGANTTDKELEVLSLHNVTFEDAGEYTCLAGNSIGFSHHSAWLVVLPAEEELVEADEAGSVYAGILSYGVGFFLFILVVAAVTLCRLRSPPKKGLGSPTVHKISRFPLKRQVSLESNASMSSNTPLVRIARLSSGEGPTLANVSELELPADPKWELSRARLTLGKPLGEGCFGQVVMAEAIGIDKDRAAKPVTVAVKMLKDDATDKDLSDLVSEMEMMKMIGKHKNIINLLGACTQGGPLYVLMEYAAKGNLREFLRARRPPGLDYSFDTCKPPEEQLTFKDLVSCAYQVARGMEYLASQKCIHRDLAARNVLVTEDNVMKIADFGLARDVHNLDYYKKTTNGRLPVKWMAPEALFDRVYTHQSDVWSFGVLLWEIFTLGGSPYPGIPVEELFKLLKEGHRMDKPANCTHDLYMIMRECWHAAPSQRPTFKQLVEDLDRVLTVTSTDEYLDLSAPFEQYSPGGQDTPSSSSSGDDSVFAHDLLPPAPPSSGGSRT

[23] = Toxicity in BALB/c nude mouse xenografted with rat L6 cells harboring FGFR V561M mutant assessed as change in lung weight at 30 to 60 mg/kg and measured daily for 14 days; format: organism-based; settings: in vivo, 336 h, dose 30-60 mg/kg, time 14 day
[24] = Toxicity in BALB/c nude mouse xenografted with rat L6 cells harboring FGFR V561M mutant assessed as change in kidney weight at 30 to 60 mg/kg and measured daily for 14 days; format: organism-based; settings: in vivo, 336 h, dose 30-60 mg/kg, time 14 day
[25] = Toxicity in ICR mouse assessed as change in liver weight at 80 mg/kg, po measured after 7 days; format: organism-based; settings: in vivo, 168 h, time 7 day
[26] = test system: Mus musculus; assay: In vivo inhibition of FGFR1 signaling pathway in BALB/c nude mouse xenografted with human NCI-H1581 cells assessed as reduction in FGFR1 phosphorylation level in tumor by Western blotting analysis; format: functional, organism-based
[27] = Toxicity in ICR mouse assessed as change in spleen weight at 80 mg/kg, po measured after 7 days; format: organism-based; settings: in vivo, 168 h, time 7 day
[28] = biological target: Platelet-derived growth factor receptor alpha (Homo sapiens) (UniProt P16234); assay: Inhibition of PDGFRalpha (unknown origin)
[29] = test system: Mus musculus; assay: In vivo inhibition of ERK phosphorylation in BALB/c nude mouse xenografted with rat L6 cells harboring FGFR1 V561M mutant assessed as suppression of ERK level in tumor at 60 mg/kg by Western blotting analysis; format: functional, organism-based
[30] = biological target: Platelet-derived growth factor receptor beta (Homo sapiens) (UniProt P09619); assay: Inhibition of PDGFRbeta (unknown origin)
Sequence of Platelet-derived growth factor receptor beta (Homo sapiens) (P09619 whole entry): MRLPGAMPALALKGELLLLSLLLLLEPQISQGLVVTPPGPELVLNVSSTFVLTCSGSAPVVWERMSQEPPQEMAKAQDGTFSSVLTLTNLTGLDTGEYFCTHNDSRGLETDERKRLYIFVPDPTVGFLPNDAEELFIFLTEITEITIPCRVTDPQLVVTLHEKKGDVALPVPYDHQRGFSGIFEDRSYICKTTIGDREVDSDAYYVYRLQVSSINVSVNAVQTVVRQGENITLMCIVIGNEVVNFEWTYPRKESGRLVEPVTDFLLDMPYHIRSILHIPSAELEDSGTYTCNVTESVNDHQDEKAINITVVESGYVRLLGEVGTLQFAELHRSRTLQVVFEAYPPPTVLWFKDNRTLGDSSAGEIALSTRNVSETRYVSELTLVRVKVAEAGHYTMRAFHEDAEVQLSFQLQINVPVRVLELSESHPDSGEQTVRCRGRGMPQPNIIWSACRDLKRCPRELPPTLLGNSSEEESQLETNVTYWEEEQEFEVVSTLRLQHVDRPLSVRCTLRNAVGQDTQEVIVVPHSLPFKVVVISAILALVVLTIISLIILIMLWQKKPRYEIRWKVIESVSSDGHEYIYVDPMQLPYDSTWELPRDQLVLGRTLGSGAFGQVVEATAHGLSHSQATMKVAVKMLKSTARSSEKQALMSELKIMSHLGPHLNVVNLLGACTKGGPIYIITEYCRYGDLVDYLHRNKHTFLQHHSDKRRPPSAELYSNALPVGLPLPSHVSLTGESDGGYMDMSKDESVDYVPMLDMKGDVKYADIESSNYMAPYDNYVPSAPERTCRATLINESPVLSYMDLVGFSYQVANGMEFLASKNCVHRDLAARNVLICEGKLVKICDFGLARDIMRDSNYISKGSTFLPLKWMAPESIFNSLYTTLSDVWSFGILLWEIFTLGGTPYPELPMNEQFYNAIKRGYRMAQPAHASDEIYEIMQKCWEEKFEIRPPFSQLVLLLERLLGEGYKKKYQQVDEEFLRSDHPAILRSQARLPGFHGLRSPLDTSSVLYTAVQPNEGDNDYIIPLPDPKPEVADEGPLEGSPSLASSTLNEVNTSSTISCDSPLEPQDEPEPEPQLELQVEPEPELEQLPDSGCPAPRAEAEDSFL

[31] = AUC(0 to t) in male Sprague-Dawley rat at 2 mg/kg, iv by UHPLC-MS/MS analysis; format: ADME, organism-based; settings: in vivo
[32] = test system: NCI-H1581; assay: Inhibition of DNA replication in human NCI-H1581 cells incubated for 1 hrs by EdU staining based analysis; format: functional, cell-based; settings: dose 100.0 µM
[33] = test system: NCI-H1581; assay: Antitumor activity against human NCI-H1581 cells xenografted in BALB/c nude mouse assessed as inhibition of tumor cell proliferation by Ki-67 staining based analysis; format: functional
[34] = Antitumor activity against rat L6 cells harboring FGFR V561M mutant xenografted in BALB/c nude mouse assessed as tumor growth inhibition at 60 mg/kg relative to control; format: functional; settings: read-out: TGI
[35] = Toxicity in ICR mouse assessed as drug tolerance at 80 mg/kg, po measured after 7 days; format: organism-based; settings: in vivo, 168 h, time 7 day
[36] = Toxicity in BALB/c nude mouse xenografted with human NCI-H1581 cells assessed as change in ALT level at 60 mg/kg; format: organism-based; settings: in vivo
[37] = biological target: Fibroblast growth factor receptor 3 (Homo sapiens, UniProt P22607); assay: Binding affinity to FGFR3 (unknown origin) at 0.1 uM
Sequence of Fibroblast growth factor receptor 3 (Homo sapiens, UniProt P22607) (P22607 23-806 limits assumed): as the sequence (P22607 23-806 V555M limits assumed) above, with M533V counted along it

[38] = Toxicity in ICR mouse assessed as change in body weight at 80 mg/kg, po measured after 7 days; format: organism-based; settings: in vivo, 168 h, time 7 day
[39] = Toxicity in BALB/c nude mouse xenografted with human NCI-H1581 cells assessed as change in AST level at 60 mg/kg; format: organism-based; settings: in vivo
[40] = Nephrotoxicity in ICR mouse assessed as change in Cr level at 80 mg/kg, po; format: toxicity, organism-based; settings: in vivo
[41] = test system: NCI-H1581; assay: Inhibition of AKT (unknown origin) phosphorylation in human NCI-H1581 cells at 40 nM by Western blotting analysis; format: cell-based
[42] = biological target: Fibroblast growth factor receptor 3 (Homo sapiens, UniProt P22607, V555L); assay: Inhibition of FGFR3 V555L mutant (unknown origin) by caliper mobility shift assay
Sequence of Fibroblast growth factor receptor 3 (Homo sapiens, UniProt P22607, V555L) (P22607 23-806 V555L limits assumed): as the sequence (P22607 23-806 V555M limits assumed) above, with M533L counted along it

Sequence of Fibroblast growth factor receptor 2 (Homo sapiens, UniProt P21802) (P21802 whole entry): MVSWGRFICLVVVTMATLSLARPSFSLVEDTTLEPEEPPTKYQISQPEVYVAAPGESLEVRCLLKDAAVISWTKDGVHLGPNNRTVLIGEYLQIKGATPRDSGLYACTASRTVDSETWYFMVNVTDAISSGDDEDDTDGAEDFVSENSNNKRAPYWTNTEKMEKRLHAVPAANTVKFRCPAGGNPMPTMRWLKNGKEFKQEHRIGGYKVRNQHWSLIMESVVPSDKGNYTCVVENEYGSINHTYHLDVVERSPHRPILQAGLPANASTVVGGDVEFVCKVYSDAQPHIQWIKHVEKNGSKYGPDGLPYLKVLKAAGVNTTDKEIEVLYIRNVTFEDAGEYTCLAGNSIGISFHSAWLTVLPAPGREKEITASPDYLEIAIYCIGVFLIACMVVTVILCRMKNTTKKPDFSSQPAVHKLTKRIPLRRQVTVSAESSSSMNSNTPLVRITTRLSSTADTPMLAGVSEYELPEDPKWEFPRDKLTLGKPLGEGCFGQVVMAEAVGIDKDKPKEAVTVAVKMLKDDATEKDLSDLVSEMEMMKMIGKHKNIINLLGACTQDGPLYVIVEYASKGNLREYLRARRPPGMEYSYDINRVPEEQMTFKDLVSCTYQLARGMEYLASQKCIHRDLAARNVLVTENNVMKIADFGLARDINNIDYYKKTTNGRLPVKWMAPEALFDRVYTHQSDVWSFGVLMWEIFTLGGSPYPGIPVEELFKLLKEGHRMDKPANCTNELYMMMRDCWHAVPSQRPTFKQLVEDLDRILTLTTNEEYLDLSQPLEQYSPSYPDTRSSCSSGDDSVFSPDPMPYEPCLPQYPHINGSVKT

In the case of `C=CC(=O)Nc1ccc(Nc2nc(Nc3ccc(N4C[C@@H](C)N[C@@H](C)C4)c(OC)c3)ncc2Cl)cc1Cl`, the AUC(0-inf) [1] is reported as 5400 ng·h/mL, the IC50 [2] is reported as 15.6 nM and the inhibition [3] is reported as “Active”. For the same compound, the Tmax [4] was 0.5 h, the inhibition in vivo at 60 mg/kg [5] was 61% and the inhibition [6] was “Dose-dependent-effect”. The inhibition in vivo at 30 mg/kg [7] was 48%, the half-life [8] was 5.18 h and the inhibition [9] was “Not active; Moderate To Weak Inhibitory Activity Observed”. The Cmax [10] was 2250 ng/mL, the inhibition [11] was “Dose-dependent-effect” and the inhibition [12] was “Active”. The IC50 [13] was 29.9 nM, the Activity [14] was “Non-toxic” and the Activity [15] was “Non-toxic”. For the same compound, the inhibition [16] was “Dose-dependent-effect”, the Activity [17] was “Active” and the Activity [18] was “Non-toxic”. For the same compound, the Activity [19] was “Non-toxic”, the AUC(0-t) [20] was 7800 ng·h/mL and the bioavailability [21] was 47.7%. For the same compound, the IC50 [22] was 4.3 nM, the Activity [23] was “Non-toxic” and the Activity [24] was “Non-toxic”. For the same compound, the Activity [25] was “Non-toxic”, the inhibition [26] was “Active” and the Activity [27] was “Non-toxic”. For the same compound, the inhibition [28] was “Not active; Moderate To Weak Inhibitory Activity Observed”, the inhibition [29] was “Active” and the inhibition [30] was “Not active; Moderate To Weak Inhibitory Activity Observed”. The AUC(0-t) [31] was 1940 ng·h/mL, the inhibition [32] was “Dose-dependent-effect” and the Activity [33] was “Active”. The inhibition in vivo at 60 mg/kg [34] was 69%, the Activity [35] was “Non-toxic” and the Activity [36] was “Non-toxic”. The Activity [37] was “Not active; Reduced Affinities Observed”, the Activity [38] was “Non-toxic” and the Activity [39] was “Non-toxic”. For the same compound, the Activity [40] was “Non-toxic”, the inhibition [41] was “Active; Greater Inhibition Observed Compared To Infigratinib” and the IC50 [42] was 2.2 nM.
